Here are results for 5 compounds from US8227483B2, “Polymorphs of 6-beta-naltrexol” (Mallinckrodt LLC, priority 2008, dated 2012).

Series [1] is described as follows: slurry experiments (stability of the crystalline forms). It counts as physicochemical. As for the experimental part:
Slurry Experiments. The stability of the crystalline forms was analyzed using slurry experiments. A portion of the solvent of interest was saturated with 6-beta-naltrexol base or 6-beta-naltrexol hydrochloride in a small vial. Additional 6-beta-naltrexol base or 6-beta-naltrexol hydrochloride was then added to the vial, and the resulting slurry was stirred using a magnetic stir bar.

Series [2] can be described thus: solubility in a mixture of alcohol and water. Type of series: physicochemical. The settings on record: compared with Form IB.
The nature of series [3]: resistance to degradation in air. Type of series: physicochemical. The conditions noted are these: compared with Form IB.
Series [4] relates to acute dependence model. The settings on record: high doses; cited from earlier work.
In series [5] the test system is chronic dependence model. The conditions noted are these: cited from earlier work.
For series [6] the following is noted: in vivo; compared with naloxone and naltrexone; cited from earlier work.
Series [7] is described as follows: water vapor sorption. Type of series: physicochemical. As to the method:
Water Vapor Sorption. Data were collected with a SGA-100 water vapor sorption balance (VTI Corporation, Hialeah, Fla.). A portion of the selected sample was weighed into a platinum sample pan and placed into the instrument. The sample was cycled from low (5%) relative humidity (RH) to high (95%) RH to low humidity (i.e., sorption and desorption events) at a constant temperature of 25° C., in 5% RH intervals. The sample was held at each interval until the equilibrium condition was met (i.e., 0.0005% for 3 min, with a maximum of 600 min).

Series [8] can be described thus: relative stability of the crystalline forms. Type of series: physicochemical. The conditions noted are these: dihydrate form of Form IIIS. From the text:
Above this humidity, Form IIIS absorbed approximately 1.4%-1.5% water at 95% RH.

Turning to `Cl.Oc1ccc2c3c1O[C@H]1[C@H](O)CC[C@@]4(O)[C@@H](C2)N(CC2CC2)CC[C@]314` [Form IIS, 6-beta-naltrexol hydrochloride], in series [1] (isopropyl alcohol slurry), the “time the form was stable in slurry” value is recorded as “at least 8 days”.

On to `Oc1ccc2c3c1O[C@H]1[C@H](O)CC[C@@]4(O)[C@@H](C2)N(CC2CC2)CC[C@]314` [Form IIB, 6-beta-naltrexol base], for which the solubility entry in series [2] is “greater solubility in a mixture of alcohol and water than Form IB”. Further, the “resistance to degradation in air” value in series [3] was “more resistant to degradation in air than Form IB”.

As to `Oc1ccc2c3c1OC1C(O)CC[C@@]4(O)[C@@H](C2)N(CC2CC2)CC[C@]314` (stereo partly drawn) [6-beta-naltrexol, morphinan-3,6,14-triol,17-(cyclopropylmethyl)-4,5-epoxy], in series [4], the withdrawal precipitated result is “only minimal withdrawal”. Further, the “fold less potent than naloxone in precipitating withdrawal” value in series [5] (relative to naloxone) is listed as around 30 fold. For the same compound, the “fold less potent than naltrexone in precipitating withdrawal” value in series [5] (relative to naltrexone) was “approximately 77 fold”. Further, the duration of action entry in series [6] was “longer duration of action than naloxone and naltrexone”.

Take `Cl.Oc1ccc2c3c1O[C@H]1[C@H](O)CC[C@@]4(O)[C@@H](C2)N(CC2CC2)CC[C@]314` [Form IVS, 6-beta-naltrexol hydrochloride]: the “time the form was stable in slurry” value in series [1] (ethyl alcohol slurry) is on record as “at least 15 days”.

`Cl.Oc1ccc2c3c1O[C@H]1[C@H](O)CC[C@@]4(O)[C@@H](C2)N(CC2CC2)CC[C@]314` [Form IIIS, 6-beta-naltrexol hydrochloride]: the stability to humidity result in series [7] (above 15% RH, 25° C.) is recorded as “reasonably stable up to approximately 90% RH”. In addition, in series [7] (after sorption/desorption cycle 5%-95%-5% RH), the “solid form at the conclusion of the sorption experiment (pXRD)” value is given as “still comprised predominately Form IIIS”. Besides, in series [7] (at 95% RH, 25° C.), the water absorbed is recorded as 1.4%-1.5%. Also, the hysteresis during desorption entry in series [7] (desorption, 25° C.) is “minimal hysteresis”. The water lost result in series [7] (humidities below 15% RH, 25° C., of its original 8.9% water content) is recorded as “approximately 4.5%”. In addition, the “relative stability among crystalline forms” value in series [8] is “most stable of all the crystalline forms of 6-beta-naltrexol hydrochloride”.
